Measurements: publication PMC4598324, “Crystal structures of Bbp from Staphylococcus aureus reveal the ligand binding mechanism with Fibrinogen α” (Protein & Cell, 2015)
Where no end group is shown, it is not given here.

Legend:
[1] = target: Bone sialoprotein-binding protein (Bbp) residues 273-598 (N2 and N3 domains) (S. aureus) (UniProt Q14U76); experiment: ITC; 500 μmol/L peptide in the syringe titrated into 50 μmol/L Bbp^273−598 in the cell; 25°C; 200 mmol/L NaCl, 20 mmol/L HEPES pH 7.5; Microcal iTC200
[2] = target: T1, Bbp^273−598 (Staphylococcus aureus, UniProt Q14U76); experiment: Isothermal titration calorimetry (ITC), Fg α^561−575 titrated into Bbp^273−598; format: binding; conditions: 25°C, Microcal iTC200, cell 50 μmol/L Bbp^273−598, syringe 500 μmol/L peptide, 200 mmol/L NaCl, 20 mmol/L HEPES pH 7.5, first peak not used for analysis
T1 construct: covering residues Asn^273–Pro^598 of Bbp from S. aureus; GST (cleaved; GPLGS remains at the N-terminus) (N, cleaved yes); made in house; host or cells: Escherichia coli BL21
T1 sequence (Q14U76 273-598): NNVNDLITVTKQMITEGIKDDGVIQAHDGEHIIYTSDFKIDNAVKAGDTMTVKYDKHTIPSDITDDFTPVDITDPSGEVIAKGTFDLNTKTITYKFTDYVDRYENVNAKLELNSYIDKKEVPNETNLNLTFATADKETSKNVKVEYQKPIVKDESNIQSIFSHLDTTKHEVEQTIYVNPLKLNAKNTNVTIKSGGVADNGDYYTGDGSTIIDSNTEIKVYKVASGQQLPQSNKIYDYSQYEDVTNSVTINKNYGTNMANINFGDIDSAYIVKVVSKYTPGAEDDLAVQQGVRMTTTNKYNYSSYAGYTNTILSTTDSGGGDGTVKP
Text: (§1) The fragment of the Bbp gene (corresponding to 273–598 aa) was amplified using S. aureus ATCC 25923 genomic DNA by PCR. The gene fragments of mutated proteins Bbp^T582A and Bbp^L584A followed the same protocol. After digestion with BamHI and XhoI (NEB), the amplified fragments were cloned into the prokaryotic expression vector pGEX-6p-1 (GE Healthcare Life Sciences) to produce the GST-Bbp fusion protein and were confirmed by DNA sequencing. The recombinant protein was expressed in Escherichia coli strain BL21 with a high yield.
The recombinant protein was firstly purified by GST-affinity column and digested with PreScission protease overnight. The eluant was collected and concentrated for further purification using gel filtration chromatography (Superdex-200 column, GE Healthcare) in buffer containing 20 mmol/L HEPES pH 7.5, 200 mmol/L NaCl, 2 mmol/L DTT on the FPLC system (GE Healthcare Life Sciences). The proteins in every step of purification were analyzed by SDS-PAGE.
(§2) The peptide corresponding to the fibrinogen α^561−575 was synthesized as previously described (Vazquez et al., [2011]).
ITC experiments were carried out at 25°C using a Microcal iTC200 instrument (GE Healthcare). […] The data were fitted and analyzed using the Origin 7 software package (Microcal).

[3] = target: T2, Bbp^L584A (Staphylococcus aureus, UniProt Q14U76, L584A); experiment: Surface plasmon resonance (SPR), immobilized mutant L584A; conditions: BIAcore T200, L584A mutant immobilized on CM5 chip (3375RU), peptide 62.5 to 0.976 μmol/L in 200 mmol/L NaCl, 20 mmol/L HEPES (pH 7.5), 30 μL/min, binding 60 s, dissociation 120 s
T2 construct: The fragment of the Bbp gene (corresponding to 273–598 aa) was amplified; GST (pGEX-6p-1) (N); made in house; host or cells: Escherichia coli BL21
T2 sequence (Q14U76 273-598 L584A): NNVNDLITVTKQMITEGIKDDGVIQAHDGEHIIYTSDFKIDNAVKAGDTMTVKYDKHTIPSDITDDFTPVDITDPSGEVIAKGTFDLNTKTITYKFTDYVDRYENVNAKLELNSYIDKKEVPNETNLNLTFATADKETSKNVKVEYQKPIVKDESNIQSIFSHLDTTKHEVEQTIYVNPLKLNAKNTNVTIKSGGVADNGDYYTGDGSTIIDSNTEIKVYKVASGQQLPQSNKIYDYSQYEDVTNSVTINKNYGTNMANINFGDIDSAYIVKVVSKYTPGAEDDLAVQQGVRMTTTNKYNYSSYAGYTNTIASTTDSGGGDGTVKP
Text: (§3) Figure 5 SPR analyses of the interactions between Bbp ^273−598 WT and mutants (T582A and L584A) and the Fg α ^561−575 (A–C), respectively. The proteins were immobilized on a BIA-core sensor chip.
as §1, §2
(§4) The interaction affinities between Fg α^561−575 and Bbp^273−598 protein were conducted by surface plasmon resonance (SPR) using BIAcore T200 instrument (GE Healthcare). The wild type Bbp^273−598 protein and two mutants were immobilized, respectively, on a CM5 sensor chip in 10 mmol/L sodium acetate, pH 4.5. The immobilization level was 3375RU. The synthetic peptide in 200 mmol/L NaCl and 20 mmol/L HEPES (pH 7.5) was injected on the protein-coated surface at various concentrations at 30 μL/min. The binding and dissociation was 60 s and 120 s, respectively.

[4] = target: T3, Bbp^T582A (Staphylococcus aureus, UniProt Q14U76, T582A); experiment: Surface plasmon resonance (SPR), immobilized mutant T582A; conditions: BIAcore T200, T582A mutant immobilized on CM5 chip (3375RU), peptide 62.5 to 0.976 μmol/L in 200 mmol/L NaCl, 20 mmol/L HEPES (pH 7.5), 30 μL/min, binding 60 s, dissociation 120 s
T3 construct: The fragment of the Bbp gene (corresponding to 273–598 aa) was amplified; GST (pGEX-6p-1) (N); made in house; host or cells: Escherichia coli BL21
T3 sequence (Q14U76 273-598 T582A): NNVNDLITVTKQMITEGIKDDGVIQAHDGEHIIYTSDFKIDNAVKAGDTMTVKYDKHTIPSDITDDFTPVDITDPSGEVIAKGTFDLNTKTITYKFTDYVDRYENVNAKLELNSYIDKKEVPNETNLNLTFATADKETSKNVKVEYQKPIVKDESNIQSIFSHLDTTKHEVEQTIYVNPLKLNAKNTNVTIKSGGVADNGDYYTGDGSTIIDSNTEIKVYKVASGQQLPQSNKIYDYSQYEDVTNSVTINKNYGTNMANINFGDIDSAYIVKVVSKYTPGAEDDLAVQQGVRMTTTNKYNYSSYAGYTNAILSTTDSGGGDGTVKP
Text: as §3, §1, §2, §4

[5] = target: T4, Bone sialoprotein-binding protein (Bbp) residues 273-598 (N2 and N3 domains) (S. aureus, UniProt Q14U76 273-598); experiment: SPR
T4 chain: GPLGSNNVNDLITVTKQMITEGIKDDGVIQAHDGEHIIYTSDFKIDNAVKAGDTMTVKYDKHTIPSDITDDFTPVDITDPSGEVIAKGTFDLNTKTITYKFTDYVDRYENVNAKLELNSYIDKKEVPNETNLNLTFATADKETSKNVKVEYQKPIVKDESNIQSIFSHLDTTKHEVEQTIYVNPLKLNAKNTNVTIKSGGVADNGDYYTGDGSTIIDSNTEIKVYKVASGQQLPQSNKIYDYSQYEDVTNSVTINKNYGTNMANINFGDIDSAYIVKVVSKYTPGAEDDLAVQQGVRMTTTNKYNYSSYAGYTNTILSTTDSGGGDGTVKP

Molecule: Fibrinogen α chain peptide, residues 561-575
- Kd [1]: 290 nM

Molecule: SKQFTSSTSYNRGDS [Fg α^561−575]
- Kd [2]: 290 nM
- Kd [3]: 456 nM
- Kd [4]: 537 nM

Molecule: SKQFTSSTSYNRGDS [Fibrinogen α chain peptide, residues 561-575]
- Kd [5]: 1620 nM
